Results as given in US20230355517A1, “USE OF ACTIVE SUBSTANCES WITH ANTIVIRAL, ANTI MALARIAL, AND/OR MUCOLYTIC PROPERTIES IN THE TREATMENT OF VIRAL LUNG DISEASES INCLUDING COVID-19 BY SOFT MIST INHALER OR VIBRATION MESH TECHNOLOGY NEBULIZER THROUGH INHALATION ROUTE” (ATANBUL UNIVERSITESI REKTOLUGU, priority 2020, published 2023).

Experiments:
[1] = pH analysis of compositions containing favipiravir; type: physicochemical
Protocol: In the present invention, pH analysis was performed for the composition containing favipiravir. […] When it is formulated with phosphate buffer, pH values thereof approach 7,4. Therefore, in consideration of all combinations, the pH interval for the formulations was kept in the range of 3.5-8.0.

lung tissue = system: lung tissue; set-up: species or system rats; conditions: rat, in vivo
[2] = type: physicochemical; conditions: pH 7.4
Protocol: In the present invention, a study for solubility of favipiravir active substance was conducted.

Q: For `NC(=O)c1nc(F)c[nH]c1=O` [favipiravir], which pH values ([1]; formulated with phosphate buffer) is on record?
A: ~7,4

Q: And the “smallest pH value” ([1]; in combinations of physiological saline, half physiological saline, and HP-β-cyclodextrin)?
A: 3.56-3.62

Q: What about the “histological damage scores of the lungs (H&E)” value (lung tissue) of the same compound?
A: not statistically different

Q: What about the “lung histology under light microscopy” value (lung tissue) of the same compound?
A: Normal lung histology

Q: What about the solubility [2] of the same compound?
A: further increased
